According to patent US20240034737A1, “Heterocyclic Derivatives as P2X7 Receptor Antagonists” (BREYE THERAPEUTICS APS, priority 2020, published 2024):

Key:
P2X7 receptor = P2X7 receptor (Homo sapiens (Human), UniProt Q99572); assay: Human P2X7 channel calcium-influx assay (Fluo-8 NW, FLIPR TETRA, Bz-ATP stimulation); type: cell-based; conditions: HEK-293 cells stably transfected with P2X7 receptor, Low Divalent Cation Assay Buffer, read-out: hP2X7 IC50
Procedure, shortened: (§1)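 HEK-293 cells stably expressing human or mouse P2X7, preloaded with Fluo-8 NW dye for 1 h at RT. Compounds added, Bz-ATP-evoked Ca2+ influx followed as fluorescence kinetics over 5 min on FLIPR TETRA; A438079 served as reference antagonist.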

CYP4503A4 = CYP4503A4 metabolic induction (mRNA expression) in human cryopreserved platable hepatocytes; type: in vitro ADME; conditions: 10 μM test compound, two days treatment, mRNA by QuantiGene Plex 2.0
Procedure: In Vitro Evaluation of Test Compounds for CYP4503A4 Metabolic Induction Using Human Liver Hepatocytes.
CYP induction assessment was performed using human cryopreserved platable hepatocytes. Test compound was assessed at three or six different concentrations in duplicate.
A sandwich culture of platable cryopreserved hepatocytes was used with one day recovery period after plating. Assessment of cell morphology and confluency was performed using a phase-contrast microscope for representative wells.
The plated hepatocyte cell monolayers were treated with test compound, negative and positive controls for two days changing medium every 24 hours. On the fourth day, assessment of cell morphology and confluency was repeated to ensure cell monolayer integrity. Assessment of cell morphology and confluency was performed using a phase-contrast microscope for representative wells.
Cell monolayers were assessed for test compound cytotoxicity by an adenosine triphosphate (ATP) content assay in a separate plate.
Expression levels of mRNA for CYP1A2, CYP2B6, and CYP3A4 were evaluated by the QuantiGene® Plex 2.0 methodology.

mP2X7 = mP2X7 (Mus musculus (Mouse), UniProt Q9Z1M0); assay: mP2X7 channel calcium-influx assay (Fluo-8 NW, FLIPR TETRA, Bz-ATP stimulation); type: cell-based
Sequence of mP2X7 (Q9Z1M0 whole entry): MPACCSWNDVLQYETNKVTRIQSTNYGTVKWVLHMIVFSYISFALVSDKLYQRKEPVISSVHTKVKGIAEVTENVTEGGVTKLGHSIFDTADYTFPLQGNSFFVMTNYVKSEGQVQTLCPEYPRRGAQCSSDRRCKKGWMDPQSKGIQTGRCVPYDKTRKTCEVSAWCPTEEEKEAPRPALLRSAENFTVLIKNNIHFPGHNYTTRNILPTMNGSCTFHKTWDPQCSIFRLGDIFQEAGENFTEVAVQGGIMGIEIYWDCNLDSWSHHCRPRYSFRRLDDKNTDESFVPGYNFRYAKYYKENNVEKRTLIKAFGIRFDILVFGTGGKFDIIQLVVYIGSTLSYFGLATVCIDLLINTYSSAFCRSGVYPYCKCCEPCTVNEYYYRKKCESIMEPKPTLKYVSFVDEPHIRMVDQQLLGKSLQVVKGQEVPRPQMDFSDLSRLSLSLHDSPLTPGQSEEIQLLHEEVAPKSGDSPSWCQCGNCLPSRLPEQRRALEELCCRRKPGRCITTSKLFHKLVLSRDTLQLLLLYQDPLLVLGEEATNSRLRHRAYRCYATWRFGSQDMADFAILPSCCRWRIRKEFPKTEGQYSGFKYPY
Procedure, shortened: as §1

Sequence of P2X7 receptor (Q99572 whole entry): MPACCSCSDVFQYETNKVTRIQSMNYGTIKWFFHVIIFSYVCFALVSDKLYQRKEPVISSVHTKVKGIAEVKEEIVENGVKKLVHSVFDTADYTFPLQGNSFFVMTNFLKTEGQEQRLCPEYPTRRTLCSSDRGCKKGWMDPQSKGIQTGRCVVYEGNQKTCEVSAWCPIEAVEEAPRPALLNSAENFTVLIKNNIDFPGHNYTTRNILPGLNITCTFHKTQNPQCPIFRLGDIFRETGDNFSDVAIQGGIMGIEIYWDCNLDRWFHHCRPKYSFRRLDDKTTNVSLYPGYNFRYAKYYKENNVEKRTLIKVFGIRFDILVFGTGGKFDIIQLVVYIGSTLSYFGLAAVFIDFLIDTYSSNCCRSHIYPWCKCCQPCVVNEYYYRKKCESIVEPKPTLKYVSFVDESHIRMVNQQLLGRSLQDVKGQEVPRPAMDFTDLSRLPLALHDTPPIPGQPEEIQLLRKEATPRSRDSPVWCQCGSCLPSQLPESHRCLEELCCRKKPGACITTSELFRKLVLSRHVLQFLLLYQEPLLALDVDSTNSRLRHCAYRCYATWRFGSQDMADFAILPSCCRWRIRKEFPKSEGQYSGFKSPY

Row | IC50 (P2X7 receptor) | CYP4503A4 mRNA fold increase at 10 μM (CYP4503A4) | IC50 (mP2X7) | Compound
1 | 18.1 nM | 6.9 fold | 18.5 nM | O=C(NCC(c1scnc1C(F)F)N1CCC(COc2cccc(F)n2)CC1)c1c(F)cccc1Cl (stereo not drawn) [Example 124, 2-Chloro-N-{2-[4-(difluoromethyl)-1,3-thiazol-5-yl]-2-(4-{[(6-fluoropyridin-2-yl)oxy]methyl}piperidin-1-yl)ethyl}-6-fluorobenzamide]
2 | 16.1 nM | 5.5 fold | 23 nM | O=C(NCC(c1scnc1C(F)F)N1CCC(COc2ccnc(F)c2)CC1)c1c(F)cccc1Cl (stereo not drawn) [Example 125, 2-Chloro-N-{2-[4-(difluoromethyl)-1,3-thiazol-5-yl]-2-(4-{[(2-fluoropyridin-4-yl)oxy]methyl}piperidin-1-yl)ethyl}-6-fluorobenzamide]
3 | 49 nM | 6.3 fold | 61.7 nM | N#Cc1cc(OC2CCN(C(CNC(=O)c3c(F)cccc3Cl)c3scnc3C(F)F)CC2)ccn1 (stereo not drawn) [Example 127, 2-Chloro-N-(2-{4-[(2-cyanopyridin-4-yl)oxy]piperidin-1-yl}-2-[4-(difluoromethyl)-1,3-thiazol-5-yl]ethyl)-6-fluorobenzamide]
